According to patent US10385024B2, “Compounds and methods for inhibiting NHE-mediated antiport in the treatment of disorders associated with fluid retention or salt overload and gastrointestinal tract disorders” (Ardelyx, Inc., priority 2012, dated 2019):

Legend:
Plasma PK = format: in vivo, Sprague-Dawley rats; conditions: Sprague-Dawley; rat plasma, oral gavage, nominal dose 30 mg/kg, mean of n=3, sampling 0.5-4 h
Procedure: Sprague-Dawley rats (n=3) were dosed with test compounds by oral gavage. Blood was collected at 0.5, 1, 2 and 4 h via retro-orbital bleeds and processed to plasma using K2EDTA as an anticoagulant. Plasma samples were treated with acetonitrile containing an internal standard and precipitated proteins were removed by centrifugation. Supernatants were analyzed by LC-MS/MS and compound concentrations were determined by interpolation from a calibration curve prepared in plasma. Accurate recovery of quality control samples were confirmed to accept each analytical run.

Rat NHE-3 [1] = molecular target: T1, Rat NHE-3 (Rattus norvegicus, UniProt P26433); experiment: Cell-based assay of NHE-3 activity (rat NHE-3 prompt inhibition); conditions: OK cells with rat NHE-3 gene, compound present during pH recovery
T1 construct: expressed in transfected cells; host or cells: Opossum kidney (OK) cells (ATCC), transfected by electroporation
In short: (§1)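 Opossum kidney cells electroporated with rat or human NHE-3, loaded with 5 μM BCECF-AM in NH4Cl-HEPES pH 7.4 for 30 min at RT, then acidified 10 min in Na+-free choline HEPES. Na+-dependent pH recovery rates from BCECF fluorescence, averaged over ≥2 replicates, gave pIC50.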

Rat NHE-3 [2] = molecular target: T1, Rat NHE-3; experiment: Cell-based assay of NHE-3 activity (persistent inhibition, after washout); conditions: OK cells with rat NHE-3 gene, 60 min incubation, recovery initiated 40 min after compound washout
In short: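 OK cells transiently expressing rat NHE-3 were exposed to 0-30 μM compound in NaCl-HEPES pH 7.4 for 60 min, then washed free of drug before NH4Cl/BCECF-AM loading and acid-loading in Na+-free choline buffer. Na+-dependent pH recovery rates (mean of ≥2 replicates) gave pIC50.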

human NHE-3 = molecular target: T2, human NHE-3 (Homo sapiens, UniProt P48764); experiment: Cell-based assay of NHE-3 activity (human NHE3 inhibition assay); conditions: OK cells with human NHE-3 gene, BCECF pH dye, 0-30 μM test compound
T2 construct: expressed in transfected cells; host or cells: Opossum kidney (OK) cells (ATCC), transfected by electroporation
T2 sequence (P48764 26-834): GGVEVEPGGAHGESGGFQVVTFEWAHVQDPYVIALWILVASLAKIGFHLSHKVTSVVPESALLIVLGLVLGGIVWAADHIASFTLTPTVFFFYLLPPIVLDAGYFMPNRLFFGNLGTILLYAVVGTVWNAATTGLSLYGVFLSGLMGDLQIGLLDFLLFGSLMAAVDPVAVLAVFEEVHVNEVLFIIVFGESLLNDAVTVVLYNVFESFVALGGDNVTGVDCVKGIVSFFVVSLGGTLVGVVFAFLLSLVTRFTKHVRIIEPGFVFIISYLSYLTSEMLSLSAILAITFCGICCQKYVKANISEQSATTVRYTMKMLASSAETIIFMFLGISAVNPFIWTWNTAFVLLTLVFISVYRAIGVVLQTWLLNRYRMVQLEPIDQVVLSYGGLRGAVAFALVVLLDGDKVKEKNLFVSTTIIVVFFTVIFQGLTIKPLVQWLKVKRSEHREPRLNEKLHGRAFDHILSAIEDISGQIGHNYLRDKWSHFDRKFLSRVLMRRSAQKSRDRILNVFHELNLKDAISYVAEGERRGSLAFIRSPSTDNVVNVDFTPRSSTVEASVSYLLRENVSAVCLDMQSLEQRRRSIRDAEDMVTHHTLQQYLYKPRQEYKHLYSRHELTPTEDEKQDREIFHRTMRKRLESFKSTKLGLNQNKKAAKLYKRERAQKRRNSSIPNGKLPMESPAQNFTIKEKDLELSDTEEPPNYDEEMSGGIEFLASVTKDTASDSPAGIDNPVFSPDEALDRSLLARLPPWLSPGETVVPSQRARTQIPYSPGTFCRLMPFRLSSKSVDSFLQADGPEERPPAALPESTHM
In short: as §1

T1 sequence (P26433 29-831): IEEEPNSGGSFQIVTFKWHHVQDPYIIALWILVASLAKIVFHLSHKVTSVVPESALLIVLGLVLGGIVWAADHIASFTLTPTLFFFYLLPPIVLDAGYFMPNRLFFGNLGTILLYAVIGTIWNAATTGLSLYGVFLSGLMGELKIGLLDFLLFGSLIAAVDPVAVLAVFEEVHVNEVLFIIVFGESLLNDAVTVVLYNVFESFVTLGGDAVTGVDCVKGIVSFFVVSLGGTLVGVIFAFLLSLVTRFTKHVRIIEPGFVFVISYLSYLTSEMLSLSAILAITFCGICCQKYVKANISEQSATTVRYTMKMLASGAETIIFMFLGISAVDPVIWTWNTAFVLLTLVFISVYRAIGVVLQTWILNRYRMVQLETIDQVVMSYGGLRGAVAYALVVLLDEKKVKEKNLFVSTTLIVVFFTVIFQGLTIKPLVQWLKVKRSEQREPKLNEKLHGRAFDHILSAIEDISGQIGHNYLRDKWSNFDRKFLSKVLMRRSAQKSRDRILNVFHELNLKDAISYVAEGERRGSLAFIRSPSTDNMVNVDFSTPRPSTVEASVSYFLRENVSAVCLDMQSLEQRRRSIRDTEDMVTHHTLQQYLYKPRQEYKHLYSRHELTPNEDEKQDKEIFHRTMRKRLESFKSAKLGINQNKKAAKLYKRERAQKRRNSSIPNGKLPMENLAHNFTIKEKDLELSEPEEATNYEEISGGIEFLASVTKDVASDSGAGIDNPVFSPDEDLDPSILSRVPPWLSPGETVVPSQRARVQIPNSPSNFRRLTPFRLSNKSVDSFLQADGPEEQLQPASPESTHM

Structure (SMILES): CN1Cc2c(Cl)cc(Cl)cc2[C@H](c2cccc(S(=O)(=O)NCCOCCOCCOCCNC(=O)NCCN(CCNC(=O)NCCOCCOCCOCCNS(=O)(=O)c3cccc([C@@H]4CN(C)Cc5c(Cl)cc(Cl)cc54)c3)CCNC(=O)NCCOCCOCCOCCNS(=O)(=O)c3cccc([C@@H]4CN(C)Cc5c(Cl)cc(Cl)cc54)c3)c2)C1 [Example 52]
- AUC (Plasma PK): < 19 ng·h/mL
- Cmax (Plasma PK): < 5 ng/mL
- Rat NHE3 pIC50 (prompt) (Rat NHE-3 [1]): B (B NHE3 pIC50 5-7)
- Rat NHE3 pIC50 (persistent) (Rat NHE-3 [2]): C (C NHE3 pIC50 > 7)
- Human NHE3 pIC50 (human NHE-3): C (C NHE3 pIC50 > 7)
